Earlier results in publication PMC9503778, “Targeted Isolation of Antibiotic Brominated Alkaloids from the Marine Sponge Pseudoceratina durissima Using Virtual Screening and Molecular Networking” (Marine Drugs, 2022).

Key:
[1] = system: zebrafish larvae at 5 dpf; set-up: method as in PMID 35200664; conditions: cited from earlier work
[2] = system: reef fish (Acanthus triostegus); set-up: method as in PMID 29702602; conditions: dosed feeding experiments; cited from earlier work
[3] = system: fresh water fish (Poecilia reticulata); set-up: method as in PMID 29702602; conditions: dosed feeding experiments; cited from earlier work
fish = system: fish; set-up: method as in PMID 29702602; conditions: 100 µg/mL; cited from earlier work

For `COC1=C(Br)[C@H](O)[C@@]2(C=C1Br)CC(C(=O)NCCCc1cnc(N)[nH]1)=NO2` [aerophobin-2], the “concentration giving significant larval mortality” value [1] is given as over 1000 nM.
For `CN(C)CCCOc1c(Br)cc(/C=C/C(=O)N(C)CCCOc2c(Br)cc(CCN(C)C)cc2Br)cc1Br` [psammaplysene D], the “feeding behavior of reef fish (Acanthus triostegus)” value [2] is listed as “significant curtailing in feeding behavior”, the “feeding behavior of fresh water fish (Poecilia reticulata)” value [3] is listed as “significant curtailing in feeding behavior” and the “fish behavior during acute exposure” value (fish) is listed as “the fish became totally confused and experienced uncontrolled mobility”.
For `COC1=C(Br)[C@@H](O)[C@]2(C=C1Br)CC(C(=O)NCCc1cnc[nH]1)=NO2` [aerophobin-1], the “concentration giving significant larval mortality” value [1] is listed as over 1000 nM.
